The first experiment addresses c-Mer (Homo sapiens (Human), UniProt Q12866). The experiment can be described thus: TAM Enzymatic Assay (HTRF), c-Mer. It counts as biochemical. The following applies: 0.0625 nM c-Mer. On the technique in general: TR-FRET usually uses a lanthanide donor and a delayed reading to cut background.
Chain of c-Mer (Q12866 21-999): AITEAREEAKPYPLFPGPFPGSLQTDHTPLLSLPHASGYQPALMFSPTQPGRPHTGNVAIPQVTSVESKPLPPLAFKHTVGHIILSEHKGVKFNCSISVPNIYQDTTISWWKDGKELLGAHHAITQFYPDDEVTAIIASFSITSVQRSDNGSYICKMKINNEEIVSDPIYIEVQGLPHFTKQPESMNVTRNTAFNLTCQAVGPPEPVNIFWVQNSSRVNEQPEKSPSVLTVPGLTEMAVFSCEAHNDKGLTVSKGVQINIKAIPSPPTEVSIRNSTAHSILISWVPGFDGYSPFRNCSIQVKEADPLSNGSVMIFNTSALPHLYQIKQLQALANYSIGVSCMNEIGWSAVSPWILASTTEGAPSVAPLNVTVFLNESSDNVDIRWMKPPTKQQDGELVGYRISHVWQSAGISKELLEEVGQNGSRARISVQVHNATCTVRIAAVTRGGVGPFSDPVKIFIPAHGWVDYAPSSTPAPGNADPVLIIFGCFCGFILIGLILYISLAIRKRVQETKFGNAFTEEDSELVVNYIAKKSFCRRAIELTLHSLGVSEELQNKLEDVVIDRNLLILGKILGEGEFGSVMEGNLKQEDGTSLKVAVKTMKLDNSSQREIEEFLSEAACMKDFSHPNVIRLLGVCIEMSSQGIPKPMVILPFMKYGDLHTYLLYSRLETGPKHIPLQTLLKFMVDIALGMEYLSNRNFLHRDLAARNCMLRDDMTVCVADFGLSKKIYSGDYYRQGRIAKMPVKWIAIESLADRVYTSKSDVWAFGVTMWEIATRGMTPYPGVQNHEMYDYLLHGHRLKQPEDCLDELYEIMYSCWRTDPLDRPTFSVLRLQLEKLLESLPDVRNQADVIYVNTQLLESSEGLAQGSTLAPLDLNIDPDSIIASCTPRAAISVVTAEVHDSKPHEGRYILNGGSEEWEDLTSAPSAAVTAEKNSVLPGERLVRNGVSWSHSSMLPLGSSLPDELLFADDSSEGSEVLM
By IC50 is commonly meant the concentration at which inhibition is half-maximal. As to `N[C@H]1CC[C@H](Cc2nc(-c3ccc(F)cc3)c3cnc(NCCCc4ccccc4)nn23)CC1` [Example 14, trans-7-((4-Aminocyclohexyl)methyl)-5-(4-fluorophenyl)-N-(3-phenylpropyl)imidazo[5,1-f][1,2,4]triazin-2-amine], the IC50 was at most 100 nM.

For another experiment, the target named is Tyro3 (Homo sapiens (Human), UniProt Q06418). The experiment can be described thus: TAM Enzymatic Assay (HTRF), Tyro3. It counts as biochemical. The following applies: 0.366 nM Tyro3, HTRF.
Chain of Tyro3 (Q06418 41-890): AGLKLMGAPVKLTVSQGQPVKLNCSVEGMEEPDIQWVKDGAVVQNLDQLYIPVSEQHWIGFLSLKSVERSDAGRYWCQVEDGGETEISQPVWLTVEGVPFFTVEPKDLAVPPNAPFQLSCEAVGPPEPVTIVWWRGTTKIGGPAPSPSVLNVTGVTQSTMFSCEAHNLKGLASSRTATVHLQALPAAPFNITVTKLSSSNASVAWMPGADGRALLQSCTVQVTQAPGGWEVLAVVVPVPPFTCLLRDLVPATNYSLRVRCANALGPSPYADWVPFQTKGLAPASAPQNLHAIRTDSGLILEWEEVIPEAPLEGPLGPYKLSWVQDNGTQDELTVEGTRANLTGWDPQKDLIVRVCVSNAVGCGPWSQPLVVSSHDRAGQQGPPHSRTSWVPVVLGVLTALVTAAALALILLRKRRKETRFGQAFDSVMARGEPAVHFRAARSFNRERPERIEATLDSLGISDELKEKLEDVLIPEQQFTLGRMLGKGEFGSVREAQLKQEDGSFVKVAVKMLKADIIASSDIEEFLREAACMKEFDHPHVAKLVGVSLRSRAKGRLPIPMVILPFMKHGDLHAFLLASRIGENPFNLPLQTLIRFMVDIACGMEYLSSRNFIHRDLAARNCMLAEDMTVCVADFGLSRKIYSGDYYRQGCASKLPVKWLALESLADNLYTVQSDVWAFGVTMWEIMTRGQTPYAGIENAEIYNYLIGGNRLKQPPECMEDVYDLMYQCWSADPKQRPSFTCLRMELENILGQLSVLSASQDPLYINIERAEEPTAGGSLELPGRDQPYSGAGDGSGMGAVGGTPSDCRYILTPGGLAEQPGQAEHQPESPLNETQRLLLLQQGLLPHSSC
Experimental: The kinase assay buffer contained 50 mM HEPES, pH7.5, 10 mM MgCl2, 1 mM EGTA, 0.01% NP-40 and 2 mM DTT. 0.1 ul test compounds dissolved in DMSO were transferred from compound plates to white 384-well assay plates (Greiner [sequence] plates). […] 4 ul enzyme solution (or assay buffer for the enzyme blank) was added to the appropriate wells in each plate, and then 4 ul/well substrate solution was added to initiate the reaction. The plate was protected from light and incubated at room temperature for 60 min. […] The plate was incubated for 1 h at room temperature, and HTRF (homogenous time resolved fluorescence) signal was measured on a PHERAstar FS plate reader (BMG labtech). Percentage of inhibition was calculated for each concentration and IC50 value was generated from curve fitting with GraphPad Prism software.
`N[C@H]1CC[C@H](Cc2nc(-c3ccc(F)cc3)c3cnc(NCCCc4ccccc4)nn23)CC1` [Example 14, trans-7-((4-Aminocyclohexyl)methyl)-5-(4-fluorophenyl)-N-(3-phenylpropyl)imidazo[5,1-f][1,2,4]triazin-2-amine] gave an IC50 above 1000 nM.

In another experiment the target is JAK1 (Homo sapiens (Human), UniProt P23458).
Chain of JAK1 (P23458 whole entry, species assumed): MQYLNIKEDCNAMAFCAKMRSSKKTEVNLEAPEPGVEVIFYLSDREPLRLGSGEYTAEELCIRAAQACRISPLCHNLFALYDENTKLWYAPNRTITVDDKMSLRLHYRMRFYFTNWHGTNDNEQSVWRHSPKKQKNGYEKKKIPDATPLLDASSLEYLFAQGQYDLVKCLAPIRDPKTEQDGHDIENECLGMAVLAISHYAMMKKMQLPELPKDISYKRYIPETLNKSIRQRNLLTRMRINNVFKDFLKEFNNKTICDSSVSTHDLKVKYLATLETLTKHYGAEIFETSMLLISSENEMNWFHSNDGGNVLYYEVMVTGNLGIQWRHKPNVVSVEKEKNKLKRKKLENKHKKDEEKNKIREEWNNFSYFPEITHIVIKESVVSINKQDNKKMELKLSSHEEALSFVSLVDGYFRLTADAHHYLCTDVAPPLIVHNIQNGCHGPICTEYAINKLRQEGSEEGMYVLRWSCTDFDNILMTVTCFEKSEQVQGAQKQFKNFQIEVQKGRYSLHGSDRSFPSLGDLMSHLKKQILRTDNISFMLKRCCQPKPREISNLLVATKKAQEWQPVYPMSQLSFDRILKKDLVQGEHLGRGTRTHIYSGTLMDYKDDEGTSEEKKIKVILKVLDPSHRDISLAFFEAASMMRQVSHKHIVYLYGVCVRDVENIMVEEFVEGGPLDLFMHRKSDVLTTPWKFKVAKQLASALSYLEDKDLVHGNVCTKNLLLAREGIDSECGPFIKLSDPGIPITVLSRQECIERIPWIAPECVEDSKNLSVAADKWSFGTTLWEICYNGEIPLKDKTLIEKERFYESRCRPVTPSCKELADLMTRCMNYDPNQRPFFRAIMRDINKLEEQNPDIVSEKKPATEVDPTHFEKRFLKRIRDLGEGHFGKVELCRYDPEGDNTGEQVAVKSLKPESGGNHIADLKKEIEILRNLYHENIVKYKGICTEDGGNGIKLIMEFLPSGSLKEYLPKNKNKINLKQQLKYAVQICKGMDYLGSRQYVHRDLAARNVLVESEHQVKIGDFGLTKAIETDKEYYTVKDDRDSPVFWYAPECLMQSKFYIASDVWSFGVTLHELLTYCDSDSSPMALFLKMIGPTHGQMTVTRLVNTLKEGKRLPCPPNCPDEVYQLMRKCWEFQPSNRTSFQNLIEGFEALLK
Experiment: not given
The following applies: 1 mM ATP; cited from earlier work.
In the case of `CCCCNc1ncc2c(-c3ccc(F)cc3)nc(C[C@H]3CC[C@H](N)CC3)n2n1` [Example 13, trans-7-[(4-Aminocyclohexyl)methyl]-N-butyl-5-(4-fluorophenyl)imidazo[5,1-f][1,2,4]triazin-2-amine], the IC50 was below 10 nM.

For `N[C@H]1CC[C@H](Cc2nc(-c3ccc(F)cc3)c3cnc(NCCCc4ccccc4)nn23)CC1` [Example 14, trans-7-((4-Aminocyclohexyl)methyl)-5-(4-fluorophenyl)-N-(3-phenylpropyl)imidazo[5,1-f][1,2,4]triazin-2-amine], the IC50 is below 10 nM.

For `CCCCNc1ncc2c(-c3ccc(F)cc3)nc(C3CCC(N)CC3)n2n1` (centres unmarked) [Example 15, 7-(4-Aminocyclohexyl)-N-butyl-5-(4-fluorophenyl)imidazo[5,1-f][1,2,4]triazin-2-amine], the IC50 is below 10 nM.

The target of a further experiment is JAK2 (Homo sapiens (Human), UniProt O60674).
Chain of JAK2 (O60674 whole entry, species assumed): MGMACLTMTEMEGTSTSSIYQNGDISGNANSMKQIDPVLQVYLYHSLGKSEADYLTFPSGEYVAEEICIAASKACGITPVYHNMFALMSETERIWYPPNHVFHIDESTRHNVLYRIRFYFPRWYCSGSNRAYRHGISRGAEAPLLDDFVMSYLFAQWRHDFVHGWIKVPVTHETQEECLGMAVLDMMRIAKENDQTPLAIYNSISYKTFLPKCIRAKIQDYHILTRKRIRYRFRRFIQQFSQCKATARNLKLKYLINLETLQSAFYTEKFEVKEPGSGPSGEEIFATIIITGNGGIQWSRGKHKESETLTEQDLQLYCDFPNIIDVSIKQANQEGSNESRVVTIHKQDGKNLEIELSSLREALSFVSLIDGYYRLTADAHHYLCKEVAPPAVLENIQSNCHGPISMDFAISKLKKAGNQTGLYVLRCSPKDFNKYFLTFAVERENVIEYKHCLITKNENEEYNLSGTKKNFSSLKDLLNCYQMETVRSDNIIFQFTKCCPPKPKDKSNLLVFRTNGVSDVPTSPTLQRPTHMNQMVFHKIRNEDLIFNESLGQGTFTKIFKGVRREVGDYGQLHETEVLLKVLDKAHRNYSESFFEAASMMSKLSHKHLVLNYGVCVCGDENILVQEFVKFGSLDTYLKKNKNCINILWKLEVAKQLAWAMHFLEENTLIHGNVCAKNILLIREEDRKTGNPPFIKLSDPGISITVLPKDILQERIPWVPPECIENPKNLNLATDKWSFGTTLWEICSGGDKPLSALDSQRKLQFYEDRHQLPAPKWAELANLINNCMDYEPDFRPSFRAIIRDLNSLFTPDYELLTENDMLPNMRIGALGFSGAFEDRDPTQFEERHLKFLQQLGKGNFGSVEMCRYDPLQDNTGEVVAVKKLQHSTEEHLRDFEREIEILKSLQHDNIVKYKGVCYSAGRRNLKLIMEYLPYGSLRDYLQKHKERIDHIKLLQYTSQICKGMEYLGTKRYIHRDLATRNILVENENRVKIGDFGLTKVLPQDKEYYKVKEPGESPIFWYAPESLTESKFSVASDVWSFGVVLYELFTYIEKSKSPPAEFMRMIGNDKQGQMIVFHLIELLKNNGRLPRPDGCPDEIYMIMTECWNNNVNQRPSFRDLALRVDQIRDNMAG
Experiment: not given
The following applies: ratio of IC50, 1 mM ATP; cited from earlier work.
`N#CCC(C1CCN(c2cccc(Cl)n2)C1)n1cc(-c2ncnc3[nH]ccc23)cn1` (single isomer, unassigned) [Compound 3, 3-[1-(6-chloropyridin-2-yl)pyrrolidin-3-yl]-3-[4-(7H-pyrrolo[2,3-d]pyrimidin-4-yl)-1H-pyrazol-1-yl]propanenitrile]: the JAK2/JAK1 is reported as above 10.

With `C[C@@H](O)c1nc2cnc3ccsc3c2n1[C@H]1CC[C@H](CC#N)OC1` [Compound 1, ((2R,5S)-5-{2-[(1R)-1-hydroxyethyl]-1H-imidazo[4,5-d]thieno[3,2-b]pyridin-1-yl}tetrahydro-2H-pyran-2-yl)acetonitrile], the JAK2/JAK1 is given as above 10.

On to `N#CCC(C1CCN(c2nc3cccnc3o2)C1)n1cc(-c2ncnc3[nH]ccc23)cn1` (centres unmarked) [Compound 4, 3-(1-[1,3]oxazolo[5,4-b]pyridin-2-ylpyrrolidin-3-yl)-3-[4-(7H-pyrrolo[2,3-d]pyrimidin-4-yl)-1H-pyrazol-1-yl]propanenitrile], for which the JAK2/JAK1 is on record as above 10.

Take `N#CCC(CN1CCN(C(=O)c2ccc(C#N)cc2F)CC1)n1cc(-c2ncnc3[nH]ccc23)cn1` (centres unmarked) [Compound 5]: the JAK2/JAK1 is above 10.

Consider `N#CCC(CN1CCN(C(=O)c2ccc(C#N)cc2F)CC1)n1ccc(-c2ncnc3[nH]ccc23)c1` (centres unmarked) [Compound 6, 4-[(4-{3-cyano-2-[3-(7H-pyrrolo[2,3-d]pyrimidin-4-yl)-1H-pyrrol-1-yl]propyl}piperazin-1-yl)carbonyl]-3-fluorobenzonitrile], for which the JAK2/JAK1 is on record as above 10.

For `N#CCC1(n2cc(-c3ncnc4[nH]ccc34)cn2)CN(C2CCN(C(=O)c3ccnc(C(F)(F)F)c3F)CC2)C1` [Compound 7, {1-{1-[3-Fluoro-2-(trifluoromethyl)isonicotinoyl]piperidin-4-yl}-3-[4-(7H-pyrrolo[2,3-d]pyrimidin-4-yl)-1H-pyrazol-1-yl]azetidin-3-yl}acetonitrile], the JAK2/JAK1 is above 10.

Turning to `N#CCC1(n2cc(-c3ncnc4[nH]ccc34)cn2)CN(C2CCN(C(=O)Nc3ccc(F)cc3C(F)(F)F)CC2)C1` [Compound 8, 4-{3-(Cyanomethyl)-3-[4-(7H-pyrrolo[2,3-d]pyrimidin-4-yl)-1H-pyrazol-1-yl]azetidin-1-yl}-N-[4-fluoro-2-(trifluoromethyl)phenyl]piperidine-1-carboxamide], the JAK2/JAK1 is on record as above 10.

Turning to `N#CCC1(n2cc(-c3ncnc4[nH]ccc34)cn2)CN(C2CCN(C(=O)c3ccnc(C(F)(F)F)n3)CC2)C1` [Compound 9, [3-[4-(7H-pyrrolo[2,3-d]pyrimidin-4-yl)-1H-pyrazol-1-yl]-1-(1-{[2-(trifluoromethyl)pyrimidin-4-yl]carbonyl}piperidin-4-yl)azetidin-3-yl]acetonitrile], the JAK2/JAK1 is above 10.

With `N#CC[C@]1(n2cc(-c3ncnc4[nH]ccc34)cn2)C[C@H](N2CCN(C(=O)c3ccnc(C(F)(F)F)n3)CC2)C1` [Compound 10, [trans-1-[4-[7H-pyrrolo[2,3-d]pyrimidin-4-yl)-1H-pyrazol-1-yl]-3-(4-{[2-(trifluoromethyl)pyrimidin-4-yl]carbonyl}piperazin-1-yl)cyclobutyl]acetonitrile], the JAK2/JAK1 is given as above 10.

`C[C@H](NC(=O)c1cc(F)c(N2CC(CC#N)(n3cc(-c4ncnc5[nH]ccc45)cn3)C2)cc1F)C(F)(F)F` [Compound 16, 4-{3-(cyanomethyl)-3-[4-(7H-pyrrolo[2,3-d]pyrimidin-4-yl)-1H-pyrazol-1-yl]azetidin-1-yl}-2,5-difluoro-N-[(1S)-2,2,2-trifluoro-1-methylethyl]benzamide]: the JAK2/JAK1 was above 10.

As for `N#CCC1(n2cc(-c3ncnc4[nH]ccc34)cn2)CN([C@H]2CC[C@@H](Oc3cc(CCO)nc(C(F)(F)F)n3)CC2)C1` [Compound 18, {1-(cis-4-{[6-(2-hydroxyethyl)-2-(trifluoromethyl)pyrimidin-4-yl]oxy}cyclohexyl)-3-[4-(7H-pyrrolo[2,3-d]pyrimidin-4-yl)-1H-pyrazol-1-yl]azetidin-3-yl}acetonitrile], the JAK2/JAK1 is above 10.

Consider `CCNCc1cc(O[C@H]2CC[C@@H](N3CC(CC#N)(n4cc(-c5ncnc6[nH]ccc56)cn4)C3)CC2)nc(C(F)(F)F)c1` [Compound 19, {1-(cis-4-{[4-[(ethylamino)methyl]-6-(trifluoromethyl)pyridin-2-yl]oxy}cyclohexyl)-3-[4-(7H-pyrrolo[2,3-d]pyrimidin-4-yl)-1H-pyrazol-1-yl]azetidin-3-yl}acetonitrile], for which the JAK2/JAK1 is recorded as above 10.

In the case of `CC(C)(O)c1cc(O[C@H]2CC[C@@H](N3CC(CC#N)(n4cc(-c5ncnc6[nH]ccc56)cn4)C3)CC2)nc(C(F)(F)F)c1` [Compound 20, {1-(cis-4-{[4-(1-hydroxy-1-methylethyl)-6-(trifluoromethyl)pyridin-2-yl]oxy}cyclohexyl)-3-[4-(7H-pyrrolo[2,3-d]pyrimidin-4-yl)-1H-pyrazol-1-yl]azetidin-3-yl}acetonitrile], the JAK2/JAK1 is recorded as above 10.

`C[C@@H](CO)NCc1cc(OC2CCN([C@H]3C[C@](CC#N)(n4cc(-c5ncnc6[nH]ccc56)cn4)C3)CC2)nc(C(F)(F)F)c1` [Compound 23, {trans-3-(4-{[4-({[(1S)-2-hydroxy-1-methylethyl]amino}methyl)-6-(trifluoromethyl)pyridin-2-yl]oxy}piperidin-1-yl)-1-[4-(7H-pyrrolo[2,3-d]pyrimidin-4-yl)-1H-pyrazol-1-yl]cyclobutyl}acetonitrile]: the JAK2/JAK1 was above 10.

In the case of `C[C@@H](O)CNCc1cc(OC2CCN([C@H]3C[C@](CC#N)(n4cc(-c5ncnc6[nH]ccc56)cn4)C3)CC2)nc(C(F)(F)F)c1` [Compound 24, {trans-3-(4-{[4-({[(2R)-2-hydroxypropyl]amino}methyl)-6-(trifluoromethyl)pyridin-2-yl]oxy}piperidin-1-yl)-1-[4-(7H-pyrrolo[2,3-d]pyrimidin-4-yl)-1H-pyrazol-1-yl]cyclobutyl}acetonitrile], the JAK2/JAK1 is given as above 10.

With `C[C@H](O)CNCc1cc(OC2CCN([C@H]3C[C@](CC#N)(n4cc(-c5ncnc6[nH]ccc56)cn4)C3)CC2)nc(C(F)(F)F)c1` [Compound 25, {trans-3-(4-{[4-({[(2S)-2-hydroxypropyl]amino}methyl)-6-(trifluoromethyl)pyridin-2-yl]oxy}piperidin-1-yl)-1-[4-(7H-pyrrolo[2,3-d]pyrimidin-4-yl)-1H-pyrazol-1-yl]cyclobutyl}acetontrile], the JAK2/JAK1 is on record as above 10.

As for `N#CC[C@]1(n2cc(-c3ncnc4[nH]ccc34)cn2)C[C@H](N2CCC(Oc3cc(CCO)cc(C(F)(F)F)n3)CC2)C1` [Compound 26, {trans-3-(4-{[4-(2-hydroxyethyl)-6-(trifluoromethyl)pyridin-2-yl]oxy}piperidin-1-yl)-1-[4-(7H-pyrrolo[2,3-d]pyrimidin-4-yl)-1H-pyrazol-1-yl]cyclobutyl}acetonitrile], the JAK2/JAK1 is listed as above 10.

`N[C@H]1CC[C@H](Cc2nc(-c3ccc(F)cc3)c3cnc(NCCCc4ccccc4)nn23)CC1` [Example 14, trans-7-((4-Aminocyclohexyl)methyl)-5-(4-fluorophenyl)-N-(3-phenylpropyl)imidazo[5,1-f][1,2,4]triazin-2-amine]: the JAK2/JAK1 was above 10.

The record behind these values is patent US10005788B2, “Bicyclic fused pyrimidine compounds as TAM inhibitors” (Incyte Corporation, priority 2015, dated 2018).
